Consider 6 molecules from ChEMBL document CHEMBL2384984, “Multivalent presentation of a hydrolytically stable GM(3) lactone mimetic as modulator of melanoma cells motility and adhesion” (2013).

Experiment [1] has as its system A-375. The experiment in a line: Cytotoxicity against human A375 cells at 10 to 50 uM after 24 hrs by crystal-violet staining-based method. Format: functional, cell-based.
For experiment [2], the system named is A-375. The experiment in a line: Inhibition of human A375 cell adhesion to fibronectin-coated dish at 50 uM incubated for 30 mins measured after 1 to 4 hrs by crystal violet staining-based method relative to control. Format: functional.
Experiment [3] concerns the target RAC-alpha serine/threonine-protein kinase (Homo sapiens) (UniProt P31749). The experiment in a line: Inhibition of AKT phosphorylation in human A375 cells at 50 uM after 24 hrs by Western blotting analysis. It counts as cell-based. As to conditions: A-375. (Immunoblotting shows a protein as a band on a membrane.)
Experiment [4] has as its system A-375. Nature of the experiment: Induction of anoikis in human A375 cells at 50 uM after 24 hrs by FITC-labeled Annexin V-propidium iodide staining-based FACS flow cytometric analysis (reference value: 15%). It counts as functional. Background: In flow cytometry, cells or beads pass a laser one at a time.
For experiment [5], the system named is A-375. Nature of the experiment: Inhibition of serum-starved human A375 cell migration at 50 uM after 24 hrs relative to control. Format: functional. As to conditions: A-375, 24 h.

Activity calls are given as the source filed them. No cut-off for these calls is given here.

One may read the inhibition as the share of the control response that was lost under treatment.

RAC-alpha serine/threonine-protein kinase (Homo sapiens), sequence (P31749 whole entry): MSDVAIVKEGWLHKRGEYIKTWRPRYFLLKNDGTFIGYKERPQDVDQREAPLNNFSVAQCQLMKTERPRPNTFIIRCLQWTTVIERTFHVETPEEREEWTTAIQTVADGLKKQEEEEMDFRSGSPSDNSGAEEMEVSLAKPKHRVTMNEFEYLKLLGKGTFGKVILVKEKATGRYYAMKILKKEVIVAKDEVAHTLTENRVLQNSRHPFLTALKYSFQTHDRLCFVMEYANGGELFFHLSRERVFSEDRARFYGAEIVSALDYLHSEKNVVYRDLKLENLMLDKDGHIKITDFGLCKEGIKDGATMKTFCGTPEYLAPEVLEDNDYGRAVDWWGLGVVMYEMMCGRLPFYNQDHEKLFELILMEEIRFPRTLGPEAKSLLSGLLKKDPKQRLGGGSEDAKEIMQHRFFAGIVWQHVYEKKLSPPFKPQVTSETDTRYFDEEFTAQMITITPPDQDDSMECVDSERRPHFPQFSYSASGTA

As for `CC(C)(C)OC(=O)NCCN(CCC(=O)NCCNC(=O)CCCCC(=O)NCCCCCCO[C@H]1O[C@H](CO)[C@H](O)C2=C1SC[C@@]1(C[C@@H](O)[C@@H](O)[C@@H]([C@H](O)CO)O1)O2)CCC(=O)NCCNC(=O)CCCCC(=O)NCCCCCCO[C@H]1O[C@H](CO)[C@H](O)C2=C1SC[C@@]1(C[C@@H](O)[C@@H](O)[C@@H]([C@H](O)CO)O1)O2`, the outcome in experiment [1] was inactive. Also, the inhibition entry in experiment [2] was “inactive”.

Consider `CC(C)(C)OC(=O)NCCN(CCC(=O)NCCN)CCC(=O)NCCN`, for which the inhibition result in experiment [2] was “inactive”.

On to `O=C(CCCCC(=O)NCCNC(=O)CCN(CCC(=O)NCCNC(=O)CCCCC(=O)NCCCCCCO[C@H]1O[C@H](CO)[C@H](O)C2=C1SC[C@]1(C[C@@H](O)[C@@H](O)[C@@H]([C@H](O)CO)O1)O2)CCN(CCC(=O)NCCNC(=O)CCCCC(=O)NCCCCCCO[C@H]1O[C@H](CO)[C@H](O)C2=C1SC[C@@]1(C[C@@H](O)[C@@H](O)[C@@H]([C@H](O)CO)O1)O2)CCC(=O)NCCNC(=O)CCCCC(=O)NCCCCCCO[C@H]1O[C@H](CO)[C@H](O)C2=C1SC[C@@]1(C[C@@H](O)[C@@H](O)[C@@H]([C@H](O)CO)O1)O2)NCCCCCCO[C@H]1O[C@H](CO)[C@H](O)C2=C1SC[C@]1(C[C@@H](O)[C@@H](O)[C@@H]([C@H](O)CO)O1)O2`, for which the result in experiment [1] was inactive. For the same molecule, the inhibition result in experiment [2] is “inactive”.

Regarding `CO[C@H]1O[C@H](CO)[C@H](O)C2=C1SC[C@]1(C[C@H](O)[C@H](O)[C@H]([C@H](O)CO)O1)O2`, the result in experiment [1] was inactive. Further, in experiment [2], the inhibition entry is “inactive”.

Turning to `CC(=O)OC[C@@H](OC(C)=O)[C@@H]1O[C@@]2(CSC3=C(O2)[C@@H](OC(C)=O)[C@@H](COC(C)=O)O[C@@H]3OCCCCCCNC(=O)CCCCC(=O)Oc2ccc([N+](=O)[O-])cc2)C[C@H](OC(C)=O)[C@@H]1OC(C)=O`, the inhibition result in experiment [2] is “inactive”.

Regarding `CCCOc1c2cc(CCCn3cc(CCO[C@H]4O[C@H](CO)[C@H](O)C5=C4SC[C@]4(C[C@@H](O)[C@@H](O)[C@@H]([C@H](O)CO)O4)O5)nn3)cc1Cc1cc(CCCn3cc(CCO[C@H]4O[C@H](CO)[C@H](O)C5=C4SC[C@]4(C[C@@H](O)[C@@H](O)[C@@H]([C@H](O)CO)O4)O5)nn3)cc(c1OCCC)Cc1cc(CCCn3cc(CCO[C@H]4O[C@H](CO)[C@H](O)C5=C4SC[C@]4(C[C@@H](O)[C@@H](O)[C@@H]([C@H](O)CO)O4)O5)nn3)cc(c1OCCC)Cc1cc(CCCn3cc(CCO[C@H]4O[C@H](CO)[C@H](O)C5=C4SC[C@]4(C[C@@H](O)[C@@H](O)[C@@H]([C@H](O)CO)O4)O5)nn3)cc(c1OCCC)C2`, in experiment [3], the inhibition result is “Active”. The molecule further had an Activity in experiment [4] of 32%. Further, in experiment [1], the outcome was inactive. Moreover, the inhibition at 50 µM in experiment [2] was 33%; in experiment [5] it was 60%.
